Columns and labels:
[1] = Pharmacokinetic study of baicalin in HepG2 cells (intracellular concentrations by UPLC-MS/MS); format: in vitro ADME, human; details: human, intracellular; for AUC(0-t) at 100 μM / Cmax at 100 μM / half-life at 100 μM: HepG2 cells
Method: (§1) The samples were quantified by UPLC-MS/MS, which consisted of a Dionex Ultimate 3000 UPLC system (Thermo Fisher Scientific, Waltham, MA, USA) and a triple quadrupole tandem mass spectrometer (Thermo Fisher Scientific, Waltham, MA, USA). The mass spectrometry was performed using an ESI ion source and in positive ion mode. The chromatograms are shown in Figure S1 of the Supplementary Materials. The samples were analyzed by a Waters XBridge BEH C18 column (2.1 × 100 mm). Mobile phase A consists of acetonitrile, while mobile phase B consists of water containing 0.1% formic acid. The elution program was as follows: B was initially 90%, 0 to 9 min B decreased from 90% to 27%, and 9.1 min to 12 min increased from 27% to 90% B. The flow rate of the mobile phase was 0.3 mL/min, the temperature of the automatic injector was 5 °C, and the injection volume was 10 μL. The m/z for BG and B6G was 447 → 271, for baicalein m/z 271 → 123, and for genistein (IS) m/z 271 → 153. Other mass spectrometry parameters included sheath gas (Arb) pressure, 20 psi, and auxiliary gas (Arb) pressure, 2 psi; source voltage, 4.8 KV, and capillary voltage, 2.5 KV; and ion-transfer-tube temperature, 375 °C, and atomization temperature, 275 °C.
(§2) HepG2 cells were cultured at a density of 1×10^5 cells/mL in 12-well plates for 24 h to facilitate the conduct of cellular pharmacokinetic experiments. The old medium was aspirated and discarded, the wells were rinsed twice with PBS, and 1 mL of 100 μM baicalin and baicalin + PEG400 (0.25%, 0.5%, and 1%) was added into 12-well plates to initiate the timer. The culture was terminated after 0.25 h, 0.5 h, 1 h, 2 h, 4 h, 6 h, 8 h, 10 h, 12 h, and 24 h, respectively. Upon reaching the designated time for administration, the cell culture medium was removed, and the wells were washed with 1 mL of cold PBS solution. Subsequently, 240 μL of ultra-pure water were added to each well, and the sample was stored at −80 °C until analysis. The sample was subjected to sonication in an ice bath for 10 min in order to lyse the cells, thereby enabling the determination of the accumulated drug concentration within the cells. Subsequently, 20 μL of the cell lysate was collected, and the protein concentration was quantified using a BCA kit for normalization.
(§3) After repeated freeze-thaw lysis, 100 μL of cell samples were taken, and 300 μL of 0.2% formic acid acetonitrile (containing 200 ng/mL genistein) were added to the vortex for 10 min to precipitate proteins and then centrifuged at 14,000 r/min for 10 min. Then the supernatant was blown dry under nitrogen at 40 °C and then reconstituted with 200 μL of methanol and centrifuged at 14,000 rpm for 10 min. The supernatant was subjected to UPLC-MS/MS analysis.

HepG2 cells = test: as above; format: in vitro ADME, human; details: HepG2 cells
Method: as §1, §2, §3

[2] = HepG2 cells given 100 μM baicalin + H PEG400 (1%)
[3] = HepG2 cells given 100 μM baicalin + L PEG400 (0.25%)
[4] = HepG2 cells given 100 μM baicalin + M PEG400 (0.5%)
[5] = HepG2 cells given 100 μM baicalin alone (group BG, control)

O=C(O)[C@H]1O[C@@H](Oc2cc3oc(-c4ccccc4)cc(=O)c3c(O)c2O)[C@H](O)[C@@H](O)[C@@H]1O [BG, Baicalein-7-O-β-D-glucuronide]
AUC(0-t) at 100 μM [1, 2]: 130 ± 5.26 µg·h/mL | Cmax at 100 μM [1, 2]: 10800 ± 350 ng/mL | half-life at 100 μM [1, 2]: 5.43 ± 0.91 h | AUC(0-t) at 100 μM [1, 3]: 107 ± 2.22 µg·h/mL | Cmax at 100 μM [1, 3]: 10200 ± 1480 ng/mL | half-life at 100 μM [1, 3]: 9.91 ± 3.76 h | AUC(0-t) at 100 μM [1, 4]: 112 ± 3.99 µg·h/mL | Cmax at 100 μM [1, 4]: 11200 ± 1500 ng/mL | half-life at 100 μM [1, 4]: 6.02 ± 4.23 h | Cmax at 100 μM [1, 5]: 7840 ± 110 ng/mL | half-life at 100 μM [1, 5]: 6.77 ± 5.92 h | AUC(0-t) at 100 μM ([1]; HepG2 cells given 100 μM baicalin alone (group BG, control), 0.25-24 h): 76 ± 2.57 µg·h/mL | Tmax at 100 μM [1, 5]: 6 h | AUC0–t increase compared with the control group (HepG2 cells; baicalin + high PEG400 (1%) vs baicalin alone): 1.72 fold | AUC0–t increase compared with the control group (HepG2 cells; baicalin + low PEG400 (0.25%) vs baicalin alone): 1.41 fold | AUC0–t increase compared with the control group (HepG2 cells; baicalin + medium PEG400 (0.5%) vs baicalin alone): 1.48 fold

— paper PMC11206988, “Study on the Effect of Pharmaceutical Excipient PEG400 on the Pharmacokinetics of Baicalin in Cells Based on MRP2, MRP3, and BCRP Efflux Transporters” (Pharmaceutics, 2024)
